Reference: US20130231316A1, “Drug Combination Comprising a Selective Serotonin Reuptake Inhibitor and a Glucocorticoid Receptor Antagonist for the Treatment of Depression” (priority 2004, published 2013)
Read-outs that look alike come from different tables or passages of the source.

Test system: 5-HT1A autoreceptor
Details: fluoxetine 10 mg/kg i.p. daily, Org 34850 15 mg/kg i.p. twice daily or vehicle, fall following i.p. injection of fluoxetine 10 mg/kg, prefrontal cortex
Protocol: In experimental animals this desensitization can be measured using microdialysis in the prefrontal cortex and a combination of local administration of an SSRI (fluoxetine) in the region of the probe to block local uptake and systemic injection which affects all uptake sites and leads to 5-HT1A autoreceptor activation.
Studies were performed on Hooded Lister rats housed in groups of three with food and water available ad libitum. Animals were kept in controlled environmental conditions: temperature (20° C.) and humidity (30-50%) on a 12 h light/dark cycle (lights on 07.00 a.m.). Each cage received the same treatment and animals from a single cage studied on the same day to avoid social isolation. Animals underwent two treatments; vehicle or GR antagonist (15 mg/kg Org 34850, intraperitoneally (i.p.)) given as twice daily injections at 07:00-07:30 and 19:00-19:30. All animals received a single daily injection of fluoxetine (10 mg/kg in sterile water i.p.) given in the morning. Treatment periods were 0 (control), 3, 7 or 14 days.
For microdialysis animals were anaesthetised with chloral hydrate (500 mg/kg i.p. plus supplementary doses as required). Surgery was undertaken to position a microdialysis probe in the right prefrontal cortex (stereotaxic coordinates: rostral +3.2 mm, lateral 0.5 mm, ventral −4.6 mm from bregma and dura surface). The probe was perfused with artificial cerebrospinal fluid (aCSF) for 3 h until stable basal level of 5-HT is achieved. Samples were collected every 20 minutes and analysed by HPLC with electrochemical detection. The experimental protocol comprised three phases: i) Basal extracellular levels of 5-HT were measured for 60 min.; ii) Fluoxetine (10 μM) was added to the aCSF to block local uptake in order to measure total release rate. Samples were collected for 80 min. and iii) Fluoxetine was injected i.p. (10 mg/kg) to block all uptake sites, including at the autoreceptor, and samples were collected for 120 min. The magnitude of the fall in measured 5-HT levels after this injection was used as a measure of autoreceptor sensitivity.

## CNCCC(Oc1ccc(C(F)(F)F)cc1)c1ccccc1 (stereo not drawn) [fluoxetine]
3 days pretreatment
  Mean Fall in 5-HT levels: 7.59 fmol
7 days pretreatment
  Mean Fall in 5-HT levels: 7.37 fmol
14 days pretreatment
  Mean Fall in 5-HT levels: 4.85 fmol
